Measured values from ChEMBL document CHEMBL4825726, “Structural insights in galectin-1-glycan recognition: Relevance of the glycosidic linkage and the N-acetylation pattern of sugar moieties” (Bioorg Med Chem, 2021).
pIC50, pKd: −log10 of the molar value.

How the values were obtained:
[1] = target: T1, Galectin-1 (Homo sapiens, UniProt P09382); test: Binding affinity to human Gal-1 assessed as inhibition of Gal-1 binding to immobilized asialofetuin pretreated with Gal-1 for 2 hrs followed by incubation with asialofetuin for 2 hrs by competitive solid phase assay; details: for pIC50: read-out: IC50
[2] = target: T1, Galectin-1; test: Binding affinity to human Gal-1 assessed as inhibition of Gal-1 binding to immobilized asialofetuin pretreated with Gal-1 for 2 hrs followed by incubation with asialofetuin for 2 hrs by competitive solid phase assay relative to lactose; details: time 4.0 hrs
[3] = target: T1, Galectin-1; test: Binding affinity to human Gal-1 assessed as dissociation constant by isothermal titration calorimetry
[4] = target: T1, Galectin-1; test: Binding affinity to human Gal-1 assessed as change in enthalpy by isothermal titration calorimetry
[5] = target: T1, Galectin-1; test: Binding affinity to human Gal-1 assessed as change in entropy by isothermal titration calorimetry
[6] = target: T1, Galectin-1; test: Binding affinity to human Gal-1 assessed as Gibbs free energy change by isothermal titration calorimetry

T1 sequence (P09382 whole entry): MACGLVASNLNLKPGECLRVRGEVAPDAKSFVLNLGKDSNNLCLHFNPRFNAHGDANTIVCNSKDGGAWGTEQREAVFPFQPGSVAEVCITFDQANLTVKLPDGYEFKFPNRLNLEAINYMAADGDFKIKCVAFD

Row | pIC50 [1] | Ratio [2] | pKd [3] | deltaH [4] | -TdeltaS [5] | deltaS [5] | deltaG [6] | IC50 [1] | SMILES
1 | 2.69 | 2.37 | 3.79 | -11.4 kcal/mol | 6.21 kcal/mol | -87.2 J/mol.K | -5.19 kcal/mol | – | CC(=O)N[C@H]1C(O)O[C@H](CO)[C@@H](O)[C@@H]1O[C@@H]1O[C@H](CO)[C@H](O)[C@H](O)[C@H]1O (stereo partly specified)
2 | – | – | – | -10.8 kcal/mol | 5.71 kcal/mol | -80.2 J/mol.K | – | – | OC[C@H]1O[C@@H](O[C@H]2[C@H](O)[C@@H](O)C(O)O[C@@H]2CO)[C@H](O)[C@@H](O)[C@H]1O (stereo partly specified)
3 | 2.71 | 2.37 | 4.02 | -12 kcal/mol | 6.55 kcal/mol | -91.9 J/mol.K | -5.47 kcal/mol | – | CC(=O)N[C@H]1C(O)O[C@H](CO)[C@@H](O[C@@H]2O[C@H](CO)[C@H](O)[C@H](O)[C@H]2O)[C@@H]1O (stereo partly specified)
4 | 1.67 | 0.22 | 3.11 | -3.66 kcal/mol | -0.598 kcal/mol | 8.4 J/mol.K | -4.25 kcal/mol | – | CC(=O)N[C@H]1[C@H](O[C@H]2[C@H](O)[C@@H](NC(C)=O)C(O)O[C@@H]2CO)O[C@H](CO[C@@H]2O[C@H](CO)[C@H](O)[C@H](O)[C@H]2O)[C@@H](O)[C@@H]1O (stereo partly specified)
5 | 1.89 | 0.36 | 3.30 | -4.28 kcal/mol | -0.215 kcal/mol | 3 J/mol.K | -4.49 kcal/mol | – | CC(=O)N[C@H]1C(O)O[C@H](CO[C@@H]2O[C@H](CO)[C@H](O)[C@H](O)[C@H]2O)[C@@H](O)[C@@H]1O (stereo partly specified)
6 | – | – | 2.88 | -1.79 kcal/mol | -2.13 kcal/mol | – | -3.92 kcal/mol | Not Active | OC[C@H]1O[C@@H](OC[C@H]2OC(O)[C@H](O)[C@@H](O)[C@@H]2O)[C@H](O)[C@@H](O)[C@H]1O (stereo partly specified)
